For 20 molecules, IC50 results are on record in patent EP4227307A1 (Genzyme Corporation, priority 2022, dated 2023).

Structures can show the parent of a compound that is named as a salt.

The target in the test is T1, human recombinant 6His-Nterm SHP2 full-length (Thr2-Arg593) (Homo sapiens, UniProt Q06124).
T1 construct: 6His-Nterm SHP2 full-length (Thr2-Arg593, R&D system); 6His (N); purchased R&D system
T1 sequence (Q06124 2-593): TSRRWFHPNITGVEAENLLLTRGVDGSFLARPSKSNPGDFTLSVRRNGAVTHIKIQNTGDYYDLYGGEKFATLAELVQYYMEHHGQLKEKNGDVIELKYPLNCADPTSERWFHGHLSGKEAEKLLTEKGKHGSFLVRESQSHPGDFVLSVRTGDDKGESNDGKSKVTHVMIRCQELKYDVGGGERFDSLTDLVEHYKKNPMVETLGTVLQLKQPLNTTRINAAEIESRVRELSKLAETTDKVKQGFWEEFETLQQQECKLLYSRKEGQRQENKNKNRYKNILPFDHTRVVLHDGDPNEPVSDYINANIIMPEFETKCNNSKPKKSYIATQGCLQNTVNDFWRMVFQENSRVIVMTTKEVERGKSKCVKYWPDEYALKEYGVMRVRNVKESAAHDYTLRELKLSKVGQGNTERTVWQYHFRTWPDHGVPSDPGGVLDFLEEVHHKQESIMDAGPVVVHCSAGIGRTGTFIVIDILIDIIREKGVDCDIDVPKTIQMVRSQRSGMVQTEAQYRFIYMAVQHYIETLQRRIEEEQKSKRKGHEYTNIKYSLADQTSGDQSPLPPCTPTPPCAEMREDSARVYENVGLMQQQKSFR
Nature of the test: SHP2 Phosphatase Assay (DiFMUP fluorescence). It counts as biochemical. The following applies: SHP2 0.2 nM pre-incubated with 100 nM bi-phosphorylated activating peptide; compound 1000-0.05 nM, 30 min pre-incubation; DiFMUP 20 µM, 45 min, room temperature; 10-concentration dose-response. How it is done: Inhibition of SHP2 phosphatase activity was evaluated using human recombinant 6His-Nterm SHP2 full-length (Thr2-Arg593, R&D system), NsCs bi-phosphorylated activating peptide (NH2-LN(pY)AQLWHA(PEG8)LTI(pY)ATIRRF-Amide.acetate, Thermofischer Scientific) and DiFMUP as surrogate phosphatase substrate (Molecular Probes). All reactions were performed at room temperature in 384-well black polystyrene non-binding plate (Corning) with the assay buffer (50 mM HEPES-NaOH pH 7.2, 100 mM NaCl, 0.5 mM EDTA, 0.001% Brij35 including 0.02% BSA and 1 mM DTT added extemporaneously). SHP2 was pre-incubated at least 10 min with the activating peptide (0.2 nM and 100 nM, respectively). 10 µL of this mixture was added to the assay plate, that already contained 15 nL of the compound (1000-0.05 nM). After 30 min pre-incubation, the enzymatic reaction was initiated by the addition of 5 µL DiFMUP in assay buffer without BSA (20 µM). The reaction was stopped by the addition of 15 µL sodium pervanadate solution (100 µM) after 45 min incubation. The fluorescence signal was measured at excitation and emission wavelengths of 350 nm and 450 nm, respectively, using a Pherastar instrument (BMG-LabTech). Percentage of inhibition […] were calculated from the fluorescence signal at 450 nm of the positive and negative control using the following formula: I% = ((signal Max−signal Sample)/(signal Max−signal Min control)) × 100 [formula]
Positive control (Max): corresponds to the maximum fluorescence signal obtained in the presence of 15 nL DMSO replacing the inhibitor in the pre-incubation step.
Negative control (Min): corresponds to the minimum signal obtained in the presence of 1 µM of RMC-4550, the structure of which is shown below: [drawing 464]
The IC50 were then calculated from a dose-response curve of 10 concentrations of tested compound using the 4-parameter logistic model: I% = A + (C)/(1 + exp(−B×log(X)−M)) [formula]
The parameters A and (A+C) are the lower and upper limits, B is the slope of the curve at the inflexion point, M parameter is the logarithm of the abscissa at the inflexion point, and X is the concentration of compound.
Usually IC50 stands for the concentration at which inhibition is half-maximal. For the molecule `Cc1nc(N2CCC3(CC2)Cc2ncccc2[C@H]3N)c2ccnn2c1-c1cncnc1` [Compound 165, (5S)-1'-(6-methyl-7-pyrimidin-5-yl-pyrazolo[1,5-a]pyrazin-4-yl)spiro[5,7-dihydrocyclopenta[b]pyridine-6,4'-piperidine]-5-amine], the IC50 came out at 0.37 µM.

Take `Cc1nc2c(s1)[C@@H](N)C1(CCN(c3nc(C)c(-c4ccc5nccnc5c4Cl)n4nccc34)CC1)C2` [Compound 81, (6S)-1'-[7-(5-chloroquinoxalin-6-yl)-6-methyl-pyrazolo[1,5-a]pyrazin-4-yl]-2-methyl-spiro [4,6-dihydrocyclopenta[d]thiazole-5,4'-piperidine]-6-amine hydrochloride]: the IC50 came out at 0.004 µM. For `Cc1nccc(-c2c(C)nc(N3CCC4(CC3)Cc3scnc3[C@H]4N)c3ccnn23)c1Cl` [Compound 69, (4S)-1'-[7-(3-chloro-2-methyl-4-pyridyl)-6-methyl-pyrazolo[1,5-a]pyrazin-4-yl]spiro[4,6-dihydrocyclopenta[d]thiazole-5,4'-piperidine]-4-amine hydrochloride], the IC50 is 0.01 µM.

Regarding `COc1cccc(-c2c(C)nc(N3CCC4(CC3)Cc3ncccc3[C@H]4N)c3ccnn23)c1F` [Compound 4, (5S)-1'-[7-(2-fluoro-3-methoxy-phenyl)-6-methyl-pyrazolo [1 ,5-a]pyrazin-4-yl]spiro[5,7-dihydrocyclopenta[b]pyridine-6,4'-piperidine] -5-amine], the IC50 was determined as 0.007 µM.

Regarding `Cc1nc(N2CCC3(CC2)Cc2c(F)cccc2[C@H]3N)c2ccnn2c1-c1cccc(F)c1F` [Compound 94, (1S)-1'-[7-(2,3-difluorophenyl)-6-methyl-pyrazolo[1,5-a]pyrazin-4-yl]-4-fluoro-spiro[indane-2,4'-piperidine]-1-amine formate], the IC50 was 0.146 µM.

As for `COc1cccc2c1CC1(CCN(c3nc(C)c(-c4cnn(C)c4C)n4nccc34)CC1)[C@@H]2N` [Compound 111, (1S)-1-[7-(1,5-dimethylpyrazol-4-yl)-6-methyl-pyrazolo[1,5-a]pyrazin-4-yl] -4-methoxy-spiro[indane-2,4'-piperidine]-1-amine], the IC50 worked out at 0.016 µM. Regarding `Cc1nccc(-c2c(C)nc(N3CCC4(CC3)Cc3ncccc3[C@H]4N)c3c(F)cnn23)c1Cl` [Compound 144, (5S)-1'-[7-(3-chloro-2-methyl-4-pyridyl)-3-fluoro-6-methyl-pyrazolo[1,5-a]pyrazin-4-yl]spiro[5,7-dihydrocyclopenta[b]pyridine-6,4'-piperidine]-5-amine hydrochloride], the IC50 was determined as 0.017 µM. Then `Cc1nc(N2CCC3(CC2)Cc2ncsc2[C@H]3N)c2ccnn2c1-c1ccccc1` [Compound 74, (6S)-1'-(6-methyl-7-phenyl-pyrazolo [1,5-a]pyrazin-4-yl)spiro[4,6-dihydrocyclopenta[d]thiazole-5,4'-piperidine] -6-amine hydrochloride], with 0.005 µM; and `Cc1nc(N2CCC3(CC2)Cc2ncccc2[C@H]3N)c2ccnn2c1-c1ccnc(C2CC2)c1Cl` [Compound 40, (5S)-1'-[7-(3-chloro-2-cyclopropyl-4-pyridyl)-6-methyl-pyrazolo[1,5-a]pyrazin-4-yl]spiro[5,7-dihydrocyclopenta[b]pyridine-6,4'-piperidine]-5-amine], with 0.01 µM. For `Cc1nccc(-c2c(C)nc(N3CCC4(CC3)Cc3ncc(F)cc3[C@H]4N)c3ccnn23)c1Cl` [Compound 28, (5S)-1'-[7-(3-chloro-2-methyl-4-pyridyl)-6-methyl-pyrazolo[1,5-a]pyrazin-4-yl]-3-fluoro-spiro[5,7-dihydrocyclopenta[b]pyridine-6,4'-piperidine] -5-amine] the value was 0.015 µM; for `Cc1nc(N2CCC3(CC2)Cc2ncccc2[C@H]3N)c2ccnn2c1-c1ccc(N(C)C)nc1` [Compound 176, (5S)-1'-[7-[6-(dimethylamino)-3-pyridyl]-6-methyl-pyrazolo [1 ,5-a]pyrazin-4-yl]spiro[5,7-dihydrocyclopenta[b]pyridine-6,4'-piperidine]-5-amine], 0.006 µM. Then `Cc1nccc(-c2cnc(N3CCC4(CC3)Cc3ncccc3[C@H]4N)c3ccnn23)c1Cl` [Compound 86, (5S)-1'-[7-(3-chloro-2-methyl-4-pyridyl)pyrazolo[1,5-a]pyrazin-4-yl]spiro[5,7-dihydrocyclopenta[b]pyridine-6,4'-piperidine]-5-amine hydrochloride], with 0.06 µM; and `Cc1nc(N2CCC3(CC2)Cc2ncccc2[C@H]3N)c2ccnn2c1-c1ccc2ncccc2c1F` [Compound 30, (5S)-1'-[7-(5-fluoro-6-quinolyl)-6-methyl-pyrazolo [1 ,5-a]pyrazin-4-yl]spiro[5,7-dihydrocyclopenta[b]pyridine-6,4'-piperidine] -5-amine formate], with 0.017 µM. For `Cc1nc(N2CCC3(CC2)Cc2ncccc2[C@H]3N)c2ccnn2c1-c1cccc(C(F)(F)F)c1F` [Compound 174, (5S)-1'-[7-[2-fluoro-3-(trifluoromethyl)phenyl] -6-methyl-pyrazolo[1,5-a]pyrazin-4-yl]spiro[5,7-dihydrocyclopenta[b]pyridine-6,4'-piperidine]-5-amine], the concentration for half-maximal inhibition (IC50) was found to be 0.005 µM. Then `COc1ccc2c(c1)[C@@H](N)C1(CCN(c3nc(C)c(-c4ccnc(C)c4F)n4nccc34)CC1)C2` [Compound 118, (1S)-1'-[7-(3-fluoro-2-methyl-4-pyridyl)-6-methyl-pyrazolo[1,5-a]pyrazin-4-yl]-6-methoxy-spiro [indane-2,4'-piperidine]-1-amine hydrochloride], with 0.004 µM; and `Cc1cnccc1-c1c(C)nc(N2CCC3(CC2)Cc2ncccc2[C@H]3N)c2ccnn12` [Compound 98, (5S)-1'-[6-methyl-7-(3-methyl-4-pyridyl)pyrazolo[1,5-a]pyrazin-4-yl]spiro [5,7-dihydrocyclopenta[b]pyridine-6,4'-piperidine] -5-amine formate], with 0.145 µM. For `Cc1nccc(-c2c(C)nc(N3CCC4(CC3)Nc3ccccc3[C@H]4N)c3ccnn23)c1Cl` [Compound 154, (3R)-1'-[7-(3-chloro-2-methyl-4-pyridyl)-6-methyl-pyrazolo[1,5-a]pyrazin-4-yl]spiro[indoline-2,4'-piperidine]-3-amine hydrochloride] the value was 0.004 µM; for `Cc1nc(N2CCC3(CC2)Cc2ncccc2[C@H]3N)c2ccnn2c1-c1ccccc1Cl` [Compound 22, (5S)-1'-[7-(2-chlorophenyl)-6-methyl-pyrazolo[1,5-a]pyrazin-4-yl]spiro[5,7-dihydrocyclopenta[b]pyridine-6,4'-piperidine]-5-amine], 0.011 µM.

With `COc1c(F)ccc(-c2c(C)nc(N3CCC4(CC3)Cc3ncccc3[C@H]4N)c3ccnn23)c1F` [Compound 5, (5S)-1'-[7-(2,4-difluoro-3-methoxy-phenyl)-6-methyl-pyrazolo [1 ,5-a]pyrazin-4-yl]spiro[5,7-dihydrocyclopenta[b]pyridine-6,4'-piperidine] -5-amine], the IC50 was found to be 0.003 µM.

As to `COc1ccc2c(c1)[C@@H](N)C1(CCN(c3nc(C)c(-c4ccccc4F)n4nccc34)CC1)C2` [Compound 11, (1S)-1'-[7-(2-fluorophenyl)-6-methyl-pyrazolo[1,5-a]pyrazin-4yl]-6-methoxy-spiro[indane-2,4'-piperidine]-1-amine hydrochloride], the IC50 worked out at 0.023 µM.
